# Earlier results, collected in patent publication US7930948B2, “Device for leaching extraction and assessment” (priority 2007, dated 2011).
# Columns and labels:
# [1] = octanol/water partition coefficient; after Mackay et al. 1992
# [2] = after Mackay et al. 1992
Compound,log(Kow) [1],Aqueous Solubility [2]
C1=Cc2cccc3cccc1c23 [Acenaphthylene],4.07,–
c1ccc2cc3ccccc3cc2c1 [Anthracene],4.54,0.073 µg/mL
c1ccc2cc3c(ccc4ccccc43)cc2c1 [Benzo(a)anthracene],5.91,–
c1ccc2c(c1)cc1ccc3cccc4ccc2c1c34 [Benzo(a)pyren],6.50,–
c1ccc2c(c1)-c1cccc3c1c-2cc1ccccc13 [Benzo(b)fluoranthene],6.50,–
"c1cc2ccc3ccc4ccc5cccc6c(c1)c2c3c4c56 [Benzo(g,h,i)perylene]",6.85,0.00026 µg/mL
c1ccc2cc3c(cc2c1)-c1cccc2cccc-3c12 [Benzo(k)fluoranthene],6.84,0.00081 µg/mL
"c1ccc2c(c1)ccc1cc3c(ccc4ccccc43)cc12 [Dibenzo(a,h)anthracene]",7.19,0.0005 µg/mL
c1ccc2c(c1)-c1cccc3cccc-2c13 [Fluoranthene],5.22,–
c1ccc2c(c1)Cc1ccccc1-2 [Fluorene],4.18,–
"c1ccc2c(c1)-c1ccc3ccc4cccc5cc-2c1c3c45 [Indeno(1,2,3-cd)pyrene]",7.66,–
c1ccc2ccccc2c1 [Naphthalene],–,34.4 µg/mL
c1ccc2c(c1)ccc1ccccc12 [Phenanthrene],–,1.29 µg/mL
Acenaphthene,4.03,–
